Measurements as given in the NIST ThermoML archive (doi:10.1016/j.jct.2011.12.008).
± gives the expanded uncertainty stated by the source.

Assay: xn = mol fraction of the nth substance listed
Conditions: 101 kPa, Liquid; for viscosity: Capillary tube (Ostwald / Ubbelohde) method; for mass density: Vibrating tube method

NCCCO [3-amino-1-propanol] + CCCCCCn1cc[n+](C)c1.F[B-](F)(F)F
Conditions	mass density [kg/m3]	viscosity [mPa·s]
293.15 K, x2 = 0	987.55 ± 0.23	39.29 ± 1.6
293.15 K, x2 = 0.0536	1010.87 ± 0.31	39.35 ± 1.6
293.15 K, x2 = 0.0969	1026.17 ± 0.32	42.89 ± 1.8
293.15 K, x2 = 0.202	1055.57 ± 0.38	49.26 ± 2.1
293.15 K, x2 = 0.3217	1080.32 ± 0.47	56.99 ± 2.4
293.15 K, x2 = 0.4942	1105.94 ± 0.62	77.82 ± 3.3
293.15 K, x2 = 0.6135	1118.92 ± 0.73	97.27 ± 4.2
293.15 K, x2 = 0.7276	1129.17 ± 0.85	125.01 ± 5.6
293.15 K, x2 = 0.8343	1137.49 ± 0.96	163.87 ± 7.5
293.15 K, x2 = 0.9204	1143.7 ± 1.1	192.2 ± 9.1
298.15 K, x2 = 0	983.55 ± 0.23	30.43 ± 1.3
298.15 K, x2 = 0.0536	1006.96 ± 0.3	30.8 ± 1.3
298.15 K, x2 = 0.0969	1022.3 ± 0.31	33.2 ± 1.4
298.15 K, x2 = 0.202	1051.74 ± 0.38	37.85 ± 1.6
298.15 K, x2 = 0.3217	1076.53 ± 0.47	44.61 ± 1.9
298.15 K, x2 = 0.4942	1102.24 ± 0.62	59.65 ± 2.5
298.15 K, x2 = 0.6135	1115.24 ± 0.73	74.53 ± 3.2
298.15 K, x2 = 0.7276	1125.66 ± 0.84	95.2 ± 4.1
298.15 K, x2 = 0.8343	1134.08 ± 0.95	123.47 ± 5.5
298.15 K, x2 = 0.9204	1140.23 ± 1.1	148.27 ± 6.8
303.15 K, x2 = 0	979.53 ± 0.23	23.87 ± 0.99
303.15 K, x2 = 0.0536	1003.04 ± 0.3	24.16 ± 1
303.15 K, x2 = 0.0969	1018.41 ± 0.31	26.02 ± 1.1
303.15 K, x2 = 0.202	1047.91 ± 0.38	29.45 ± 1.2
303.15 K, x2 = 0.3217	1072.75 ± 0.47	34.55 ± 1.4
303.15 K, x2 = 0.4942	1098.55 ± 0.61	46.03 ± 1.9
303.15 K, x2 = 0.6135	1111.63 ± 0.72	57.96 ± 2.4
303.15 K, x2 = 0.7276	1122.11 ± 0.83	73.65 ± 3.1
303.15 K, x2 = 0.8343	1130.63 ± 0.95	95.84 ± 4.2
303.15 K, x2 = 0.9204	1136.88 ± 1	115.79 ± 5.1
308.15 K, x2 = 0	975.51 ± 0.23	19.07 ± 0.79
308.15 K, x2 = 0.0536	999.11 ± 0.3	19.14 ± 0.79
308.15 K, x2 = 0.0969	1014.5 ± 0.31	20.58 ± 0.86
308.15 K, x2 = 0.202	1044.05 ± 0.37	23.41 ± 0.98
308.15 K, x2 = 0.3217	1068.95 ± 0.46	27.53 ± 1.1
308.15 K, x2 = 0.4942	1094.86 ± 0.61	36.45 ± 1.5
308.15 K, x2 = 0.6135	1108.04 ± 0.71	45.81 ± 1.9
308.15 K, x2 = 0.7276	1118.58 ± 0.83	58.09 ± 2.4
308.15 K, x2 = 0.8343	1127.18 ± 0.94	75.38 ± 3.2
308.15 K, x2 = 0.9204	1133.5 ± 1	91.04 ± 3.9
313.15 K, x2 = 0	971.47 ± 0.23	15.27 ± 0.63
313.15 K, x2 = 0.0536	995.18 ± 0.3	15.64 ± 0.65
313.15 K, x2 = 0.0969	1010.6 ± 0.3	16.63 ± 0.69
313.15 K, x2 = 0.202	1040.2 ± 0.37	18.74 ± 0.78
313.15 K, x2 = 0.3217	1065.16 ± 0.46	22.05 ± 0.92
313.15 K, x2 = 0.4942	1091.16 ± 0.6	29.14 ± 1.2
313.15 K, x2 = 0.6135	1104.43 ± 0.71	36.47 ± 1.5
313.15 K, x2 = 0.7276	1115.05 ± 0.82	46.32 ± 1.9
313.15 K, x2 = 0.8343	1123.73 ± 0.93	59.62 ± 2.5
313.15 K, x2 = 0.9204	1130.12 ± 1	71.6 ± 3
318.15 K, x2 = 0	967.43 ± 0.23	12.35 ± 0.51
318.15 K, x2 = 0.0536	991.28 ± 0.3	12.68 ± 0.52
318.15 K, x2 = 0.0969	1006.67 ± 0.3	13.6 ± 0.56
318.15 K, x2 = 0.202	1036.34 ± 0.37	15.76 ± 0.65
318.15 K, x2 = 0.3217	1061.36 ± 0.45	18.42 ± 0.76
318.15 K, x2 = 0.4942	1087.47 ± 0.6	23.9 ± 1
318.15 K, x2 = 0.6135	1100.82 ± 0.7	28.64 ± 1.2
318.15 K, x2 = 0.7276	1111.54 ± 0.82	37.85 ± 1.6
318.15 K, x2 = 0.8343	1120.28 ± 0.93	48.22 ± 2
318.15 K, x2 = 0.9204	1126.73 ± 1	58.5 ± 2.5
323.15 K, x2 = 0	963.37 ± 0.23	10.22 ± 0.42
323.15 K, x2 = 0.0536	987.32 ± 0.3	10.61 ± 0.44
323.15 K, x2 = 0.0969	1002.75 ± 0.3	11.16 ± 0.46
323.15 K, x2 = 0.202	1032.48 ± 0.36	12.61 ± 0.52
323.15 K, x2 = 0.3217	1057.55 ± 0.45	15.89 ± 0.66
323.15 K, x2 = 0.4942	1083.77 ± 0.59	19.73 ± 0.82
323.15 K, x2 = 0.6135	1097.21 ± 0.7	24.2 ± 1
323.15 K, x2 = 0.7276	1108.02 ± 0.81	31.19 ± 1.3
323.15 K, x2 = 0.8343	1116.83 ± 0.92	39.61 ± 1.7
323.15 K, x2 = 0.9204	1123.36 ± 1	47.9 ± 2
328.15 K, x2 = 0	959.3 ± 0.23	8.535 ± 0.35
328.15 K, x2 = 0.0536	983.35 ± 0.3	8.7 ± 0.36
328.15 K, x2 = 0.0969	998.8 ± 0.3	9.325 ± 0.38
328.15 K, x2 = 0.202	1028.62 ± 0.36	10.96 ± 0.45
328.15 K, x2 = 0.3217	1053.76 ± 0.44	13.04 ± 0.54
328.15 K, x2 = 0.4942	1080.08 ± 0.59	16.58 ± 0.69
328.15 K, x2 = 0.6135	1093.61 ± 0.69	19.92 ± 0.83
328.15 K, x2 = 0.7276	1104.51 ± 0.8	26.05 ± 1.1
328.15 K, x2 = 0.8343	1113.4 ± 0.91	33.11 ± 1.4
328.15 K, x2 = 0.9204	1119.94 ± 1	41.26 ± 1.7
333.15 K, x2 = 0	955.22 ± 0.23	7.123 ± 0.29
333.15 K, x2 = 0.0536	979.37 ± 0.3	7.144 ± 0.29
333.15 K, x2 = 0.0969	994.86 ± 0.3	7.836 ± 0.32
333.15 K, x2 = 0.202	1024.75 ± 0.36	8.918 ± 0.37
333.15 K, x2 = 0.3217	1049.98 ± 0.44	10.47 ± 0.43
333.15 K, x2 = 0.4942	1076.4 ± 0.58	13.86 ± 0.57
333.15 K, x2 = 0.6135	1090.05 ± 0.69	17.14 ± 0.71
333.15 K, x2 = 0.7276	1101.02 ± 0.8	21.81 ± 0.91
333.15 K, x2 = 0.8343	1109.97 ± 0.91	27.5 ± 1.2
333.15 K, x2 = 0.9204	1116.55 ± 1	37.45 ± 1.6
338.15 K, x2 = 0	951.14 ± 0.23	6.045 ± 0.25
338.15 K, x2 = 0.0536	975.37 ± 0.3	6.221 ± 0.25
338.15 K, x2 = 0.0969	990.91 ± 0.3	6.676 ± 0.28
338.15 K, x2 = 0.202	1020.88 ± 0.36	7.634 ± 0.31
338.15 K, x2 = 0.3217	1046.21 ± 0.44	9.153 ± 0.38
338.15 K, x2 = 0.4942	1072.72 ± 0.58	11.94 ± 0.49
338.15 K, x2 = 0.6135	1086.5 ± 0.68	14.71 ± 0.61
338.15 K, x2 = 0.7276	1097.55 ± 0.79	18.64 ± 0.77
338.15 K, x2 = 0.8343	1106.57 ± 0.9	23.24 ± 0.96
338.15 K, x2 = 0.9204	1113.17 ± 1	32.09 ± 1.4
